For one assay, the target named is Ba/F3 V617F cells (Homo sapiens, UniProt O60674, V617F, cells depend on it). The experiment in a line: Proliferation assay (Cell Titer-Glo, 72 h) utilizing Ba/F3 V617F cells. In kind it is cell-based, mouse. To be noted: Ba/F3 V617F cells, proliferation, level of activity given as class symbol, read-out: IC50 (the source's name). In short, it runs like this: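 Ba/F3 V617F cells in RPMI/10% FBS, 1×10^5 cells/mL, exposed in duplicate to 3-fold serial compound dilutions (top 5 mM DMSO stock, diluted 1:250, added as 2× solution in 5% FBS medium) for 72 h at 37 °C. Viability by Cell Titer-Glo luminescence; IC50 reported.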
Chain of Ba/F3 V617F cells (O60674 whole entry V617F): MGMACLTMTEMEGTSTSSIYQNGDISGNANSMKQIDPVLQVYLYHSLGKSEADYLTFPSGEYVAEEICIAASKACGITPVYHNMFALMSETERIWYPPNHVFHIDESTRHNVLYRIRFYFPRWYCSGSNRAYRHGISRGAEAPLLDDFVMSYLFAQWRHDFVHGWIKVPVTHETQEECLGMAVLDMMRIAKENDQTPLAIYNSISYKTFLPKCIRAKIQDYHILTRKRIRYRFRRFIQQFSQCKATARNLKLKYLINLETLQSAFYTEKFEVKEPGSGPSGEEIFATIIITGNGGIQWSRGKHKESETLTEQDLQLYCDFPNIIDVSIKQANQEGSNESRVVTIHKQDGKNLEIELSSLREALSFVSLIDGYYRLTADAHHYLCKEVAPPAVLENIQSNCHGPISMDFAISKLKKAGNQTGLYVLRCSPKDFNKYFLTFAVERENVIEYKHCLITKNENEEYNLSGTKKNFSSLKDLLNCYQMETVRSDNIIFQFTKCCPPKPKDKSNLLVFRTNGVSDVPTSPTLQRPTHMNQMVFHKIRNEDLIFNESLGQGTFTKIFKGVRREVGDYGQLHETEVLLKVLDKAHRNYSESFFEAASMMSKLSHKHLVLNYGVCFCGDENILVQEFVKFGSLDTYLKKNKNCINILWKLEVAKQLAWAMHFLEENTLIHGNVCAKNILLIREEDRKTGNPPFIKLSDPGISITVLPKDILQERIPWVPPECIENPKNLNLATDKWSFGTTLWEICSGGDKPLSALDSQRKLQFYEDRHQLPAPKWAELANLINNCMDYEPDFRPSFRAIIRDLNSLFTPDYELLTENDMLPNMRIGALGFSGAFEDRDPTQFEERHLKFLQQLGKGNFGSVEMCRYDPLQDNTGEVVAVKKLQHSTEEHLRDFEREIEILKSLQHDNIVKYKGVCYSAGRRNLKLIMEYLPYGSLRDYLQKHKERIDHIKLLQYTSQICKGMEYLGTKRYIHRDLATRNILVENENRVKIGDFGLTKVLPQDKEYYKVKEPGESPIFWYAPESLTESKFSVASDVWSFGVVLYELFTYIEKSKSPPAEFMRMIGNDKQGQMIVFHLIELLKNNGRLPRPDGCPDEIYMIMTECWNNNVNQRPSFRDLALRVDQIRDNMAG
Turning to `Cc1cc(Nc2nccc(-c3ccc(NCCCN(C)C)nc3)n2)ccc1N1C[C@@H]2C[C@H]1CN2C` [compound 198, 4-(6-(3-dimethylamino)propylaminopyridin-3-yl)-N-(3-methyl-4-((1S,4S)-5-methyl-2,5-diazabicyclo[2.2.1]heptan-2-yl)phenyl)pyrimidin-2-amine], the GI50 was in the range of 1000 to 10000 nM.

Take `CN1C[C@@H]2C[C@H]1CN2c1ccc(Nc2nccc(-c3ccc4c(c3)OC(C)(C)C(=O)N4)n2)cc1C#N` [compound 271, 4-(2,2-dimethyl-3-oxo-3,4-dihydro-2H-benzo[b][1,4]oxazin-7-yl)-N-(3-cyano-4-((1S,4S)-5-methyl-2,5-diazabicyclo[2.2.1]heptan-2-yl)phenyl)pyrimidin-2-amine]: the GI50 is < 1000 nM.

Regarding `Cc1cc(Nc2nccc(-c3ccc(N4C[C@H]5C[C@@H]4CO5)nc3)n2)ccc1N1C[C@@H]2C[C@H]1CN2C` [compound 265, 4-(6-((1R,4R)-2-oxa-5-azabicyclo[2.2.1]heptan-5-yl)pyridin-3-yl)-N-(3-methyl-4-((1S,4S)-5-methyl-2,5-diazabicyclo[2.2.1]heptan-2-yl)phenyl)pyrimidin-2-amine], the GI50 is < 1000 nM.

In the case of `CN1C[C@@H]2C[C@H]1CN2c1ccc(Nc2nccc(-c3ccc(N4CCOCC4)nc3)n2)cc1Cl` [compound 255, 4-(6-(morpholin-4-yl)pyridin-3-yl)-N-(3-chloro-4-((1S,4S)-5-methyl-2,5-diazabicyclo[2.2.1]heptan-2-yl)phenyl)pyrimidin-2-amine], the GI50 was < 1000 nM.

As to `CCC(=O)N1C[C@@H]2C[C@H]1CN2c1ccc(Nc2nccc(-c3ccc(N4CCOCC4)nc3)n2)cc1C` [compound 196, 4-(6-(morpholin-4-yl)pyridin-3-yl)-N-(3-methyl-4-((1S,4S)-5-ethylcarbonyl-2,5-diazabicyclo[2.2.1]heptan-2-yl)phenyl)pyrimidin-2-amine], the GI50 is < 1000 nM.

Turning to `Cc1cc(Nc2nccc(-c3ccnc(C(F)(F)F)c3)n2)ccc1N1C[C@@H]2C[C@H]1CN2C` [compound 256, 4-(2-(trifluoromethyl)pyridin-4-yl)-N-(3-methyl-4-((1S,4S)-5-methyl-2,5-diazabicyclo[2.2.1]heptan-2-yl)phenyl)pyrimidin-2-amine], the GI50 was < 1000 nM.

As for `Cc1cc(Nc2nccc(-c3ccc4c(ccn4-c4ccncc4)c3)n2)ccc1N1C[C@@H]2C[C@H]1CN2C` [compound 232, 4-(1-(pyridin-4-yl)-1H-indol-5-yl)-N-(3-methyl-4-((1S,4S)-5-methyl-2,5-diazabicyclo[2.2.1]heptan-2-yl)phenyl)pyrimidin-2-amine], the GI50 was < 1000 nM.

Take `Cc1cc(Nc2nccc(-c3ccc(N4C[C@@H](C)O[C@@H](C)C4)nc3)n2)ccc1N1C[C@@H]2C[C@H]1CN2C` [compound 187, 4-(6-(cis-2,6-dimethylmorpholin-4-yl)pyridin-3-yl)-N-(3-methyl-4-((1S,4S)-5-methyl-2,5-diazabicyclo[2.2.1]heptan-2-yl)phenyl)pyrimidin-2-amine]: the GI50 was < 1000 nM.

As for `Cc1cc(Nc2nccc(-c3cnc4[nH]c5c(c4c3)CCCC5)n2)ccc1N1C[C@@H]2C[C@H]1CN2C` [compound 267, 4-(6,7,8,9-tetrahydro-5H-pyrido[2,3-b]indol-3-yl)-N-(3-methyl-4-((1S,4S)-5-methyl-2,5-diazabicyclo[2.2.1]heptan-2-yl)phenyl)pyrimidin-2-amine], the GI50 lay in the range of 1000 to 10000 nM.

For `Cc1cc(Nc2nccc(-c3ccc(N4CCOCC4)nc3)n2)ccc1N1C[C@@H]2C[C@H]1CN2C1CC1` [compound 254, 4-(6-(morpholin-4-yl)pyridin-3-yl)-N-(3-methyl-4-((1S,4S)-5-cyclopropyl-2,5-diazabicyclo[2.2.1]heptan-2-yl)phenyl)pyrimidin-2-amine], the GI50 is < 1000 nM.

Staying with this assay, now noted: Ba/F3 V617F cells, proliferation, level of activity to inhibit JAK2, read-out: IC50 (the source's name).
For `Cc1cc(Nc2nccc(-c3ccc(N(C)C)nc3)n2)ccc1N1C[C@@H]2C[C@H]1CN2C` [compound 1, 4-(6-(N,N-dimethylamino)pyridin-3-yl)-N-(3-methyl-4-((1S,4S)-5-methyl-2,5-diazabicyclo[2.2.1]heptan-2-yl)phenyl)pyrimidin-2-amine], the GI50 is < 1000 nM.

As for `CC(=O)Nc1ccc(-c2ccnc(Nc3ccc(N4CC5CCC(C4)N5C)cc3)n2)cc1` [compound 162, 4-(4-(acetamido)phenyl)-N-(4-(8-methyl-3,8-diazabicyclo[3.2.1]octan-3-yl)phenyl)pyrimidin-2-amine], the GI50 was < 1000 nM.

On to `CN1C2CCC1CN(c1ccc(Nc3nccc(-c4ccc(N)nc4)n3)cc1)C2` [compound 158, 4-(6-aminopyridin-3-yl)-N-(4-(8-methyl-3,8-diazabicyclo[3.2.1]octan-3-yl)phenyl)pyrimidin-2-amine], for which the GI50 was < 1000 nM.

`CN1C[C@@H]2C[C@H]1CN2c1ccc(Nc2nccc(-c3cc[nH]c3)n2)cc1` [compound 170, 4-(1H-pyrrol-3-yl)-N-(4-((1S,4S)-5-methyl-2,5-diazabicyclo[2.2.1]heptan-2-yl)phenyl)pyrimidin-2-amine]: the GI50 lay within 1000 to 10000 nM.

Consider `CNC(=O)Cc1ccc(-c2ccnc(Nc3ccc(N4C[C@@H]5C[C@H]4CN5C)c(C)c3)n2)cc1` [compound 48, 4-(4-((methyl)aminocarbonylmethyl)-phenyl)-N-(3-methyl-4-((1S,4S)-5-methyl-2,5-diazabicyclo[2.2.1]heptan-2-yl)phenyl)pyrimidin-2-amine], for which the GI50 was in the range of 1000 to 10000 nM.

With `Cc1cc(Nc2ncc(F)c(-c3ccc(N(C)C)nc3)n2)ccc1N1C[C@@H]2C[C@H]1CN2C` [compound 4, 4-(6-(N,N-dimethylamino)pyridin-3-yl)-5-fluoro-N-(3-methyl-4-((1S,4S)-5-methyl-2,5-diazabicyclo[2.2.1]heptan-2-yl)phenyl)pyrimidin-2-amine], the GI50 is < 1000 nM.

Take `Cc1cc(Nc2nccc(-c3cnc4c(c3)OCCN4C)n2)ccc1N1C[C@@H]2C[C@H]1CN2C` [compound 8, 4-(4-methyl-3,4-dihydro-2H-pyrido[3,2-b][1,4]oxazin-7-yl)-N-(3-methyl-4-((1S,4S)-5-methyl-2,5-diazabicyclo[2.2.1]heptan-2-yl)phenyl)pyrimidin-2-amine]: the GI50 is < 1000 nM.

Take `CN1CC2(C)CN(c3ccc(Nc4nccc(-c5ccc(N(C)C)nc5)n4)cc3F)CC(C)(C1)C2` [compound 83, 4-(6-(dimethylamino)pyridin-3-yl)-N-(3-fluoro-4-(1,5,7-trimethyl-3,7-diazabicyclo[3.3.1]nonan-3-yl)phenyl)pyrimidin-2-amine]: the GI50 was < 1000 nM.

Turning to `CNC(=O)c1ccc(-c2ccnc(Nc3ccc(N4C[C@@H]5C[C@H]4CN5C)c(C)c3)n2)cn1` [compound 50, 4-(6-(methylaminocarbonyl)pyridin-3-yl)-N-(3-methyl-4-((1S,4S)-5-methyl-2,5-diazabicyclo[2.2.1]heptan-2-yl)phenyl)pyrimidin-2-amine], the GI50 was < 1000 nM.

As to `Cc1cc(Nc2nccc(-c3ccc(N4CCOCC4)nc3)n2)ccc1N1C[C@@H]2C[C@H]1CN2C` [compound 10, 4-(6-(morpholin-4-yl)pyridin-3-yl)-N-(3-methyl-4-((1S,4S)-5-methyl-2,5-diazabicyclo[2.2.1]heptan-2-yl)phenyl)pyrimidin-2-amine], the GI50 is < 1000 nM.

As to `CC(=O)Nc1ccc(-c2ccnc(Nc3ccc(N4C[C@@H]5C[C@H]4CN5C)c(C)c3)n2)cn1` [compound 132, 4-(6-(acetamido)pyridin-3-yl)-N-(3-methyl-4-((1S,4S)-5-methyl-2,5-diazabicyclo[2.2.1]heptan-2-yl)phenyl)pyrimidin-2-amine], the GI50 is < 1000 nM.

On to `Cc1cc(Nc2nccc(-c3ccc(CC(=O)NC4CC4)cc3)n2)ccc1N1C[C@@H]2C[C@H]1CN2C` [compound 49, 4-(4-((cyclopropyl)aminocarbonyl-methyl)phenyl)-N-(3-methyl-4-((1S,4S)-5-methyl-2,5-diazabicyclo[2.2.1]heptan-2-yl)phenyl)pyrimidin-2-amine], for which the GI50 was 1000 to 10000 nM.

Turning to `Cc1cc(Nc2nccc(-c3cncc(C(=O)N4CCOCC4)c3)n2)ccc1N1C[C@@H]2C[C@H]1CN2C` [compound 52, 4-(5-((morpholin-4-yl)carbonyl)pyridin-3-yl)-N-(3-methyl-4-((1S,4S)-5-methyl-2,5-diazabicyclo[2.2.1]heptan-2-yl)phenyl)pyrimidin-2-amine], the GI50 is < 1000 nM.

In the case of `CCC(=O)N1C[C@@H]2C[C@H]1CN2c1ccc(Nc2nccc(-c3ccc(N)nc3)n2)cc1C` [compound 148, 4-(6-aminopyridin-3-yl)-N-(3-methyl-4-((1S,4S)-5-ethylcarbonyl-2,5-diazabicyclo[2.2.1]heptan-2-yl)phenyl)pyrimidin-2-amine], the GI50 is < 1000 nM.

Take `CCOC(C)c1ccc(-c2ccnc(Nc3ccc(N4C[C@@H]5C[C@H]4CN5C)c(F)c3)n2)cc1` (stereo partly drawn) [compound 182, 4-(4-(1-ethoxyethyl)phenyl)-N-(3-fluoro-4-((1S,4S)-5-methyl-2,5-diazabicyclo[2.2.1]heptan-2-yl)phenyl)pyrimidin-2-amine]: the GI50 lay in the range of 1000 to 10000 nM.

Staying with this assay, now noted: inhibition of JAK2 activity, proliferation of Ba/F3 V617F cells, read-out: IC50 (the source's name).
In the case of `Cc1cc(Nc2nccc(-c3ccc(N4C[C@@H]5C[C@H]4CO5)nc3)n2)cnc1N1C[C@@H]2C[C@H]1CN2C` [compound 266, 4-(6-((1S,4S)-2-oxa-5-azabicyclo[2.2.1]heptan-5-yl)pyridin-3-yl)-N-(5-methyl-6-((1S,4S)-5-methyl-2,5-diazabicyclo[2.2.1]heptan-2-yl)pyridin-3-yl)pyrimidin-2-amine], the GI50 is < 1000 nM.

With `CN1C[C@@H]2C[C@H]1CN2c1ccc(Nc2nccc(-c3cnc(N4CCOCC4)cn3)n2)cn1` [compound 180, 4-(5-(morpholin-4-yl)pyrazin-2-yl)-N-(6-((1S,4S)-5-methyl-2,5-diazabicyclo[2.2.1]heptan-2-yl)pyridin-3-yl)pyrimidin-2-amine], the GI50 was in the range of 1000 to 10000 nM.

These data come from US9624229B2, “Pyrimidine-2-amine compounds and their use as inhibitors of JAK kinases” (Rigel Pharmaceuticals, Inc., priority 2008, dated 2017).
